In patent publication US20220016102A1, “ER PROTEIN REGULATORS AND USE THEREOF” (ShanghaiTech University, priority 2018, published 2022):

These compounds were tested against T1, ER protein (Homo sapiens, UniProt P03372) (assay: Western blotting analysis of ER protein degradation in T47D cell line). Conditions: degradation of ER protein, T47D cells, drug treatment for 16 hours, Western blot gray values vs DMSO control; read-out: DC50 (nM)/T47Dcell line.
T1 sequence (P03372 1-595): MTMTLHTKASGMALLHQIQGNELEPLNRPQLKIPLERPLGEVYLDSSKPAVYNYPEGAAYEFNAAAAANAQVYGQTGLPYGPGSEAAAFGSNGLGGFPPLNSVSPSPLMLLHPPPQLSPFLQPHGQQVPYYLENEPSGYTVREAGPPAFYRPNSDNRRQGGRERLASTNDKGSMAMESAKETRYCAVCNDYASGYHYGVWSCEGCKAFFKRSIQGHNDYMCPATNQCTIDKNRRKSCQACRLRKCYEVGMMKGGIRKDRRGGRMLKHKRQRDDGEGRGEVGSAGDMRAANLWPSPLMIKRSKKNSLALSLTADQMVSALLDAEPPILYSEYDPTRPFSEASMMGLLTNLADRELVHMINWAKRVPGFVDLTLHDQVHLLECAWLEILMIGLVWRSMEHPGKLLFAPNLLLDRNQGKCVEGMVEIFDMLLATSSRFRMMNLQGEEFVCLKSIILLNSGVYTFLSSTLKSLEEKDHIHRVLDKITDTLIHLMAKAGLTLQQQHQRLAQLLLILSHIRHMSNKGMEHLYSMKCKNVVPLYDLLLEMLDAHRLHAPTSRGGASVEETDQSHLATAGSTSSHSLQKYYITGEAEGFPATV
Format: cell-based
Parameters: western blotting detection of the level of intracellular ER protein; endogenous in cells; host or cells: T47D
Protocol: T47D cells were cultured in an incubator with 5% CO2 at 37° C. Complete medium was RPMI1640 supplemented with 10% Foetal bovine serum (FBS), 100 U/ml Penicillin and Streptomycin, and 0.77 μg/mL recombinant human insulin. Western blotting analysis of T47D cell line: • Cells were plated in a 24-well plate at a cell seeding […] of 1.5×10^5 cells/mL, with 1 ml cell suspensions per well. • After 24 h the cells were adherent, and the cells in each well were treated with 1 μL a certain concentration of ER protein regulators of the present disclosure. […] Afterwards, the membranes were block by using the Blocking Buffer, and the antibody incubation and development were performed. (The above procedures were all based on the antibody product manual of the manufacturer) DC50 value (the drug concentration required for degrading proteins by 50%, abbreviated as DC50) reads method: comparing the gray values of the Western blotting bands for the drug treatment with the gray values of the Western blotting band for the DMSO control, and reading the drug concentration range corresponding to the gray value of the Western blotting bands for the drug treatment which is equal to half of the gray value of the Western blotting band for the DMSO control. DC50 value could also be calculated as follows: using software ImageJ to quantify the gray values of the Western blotting bands for the drug treatment, fitting the relationship curve between drug concentrations and gray values, and from the fitted curve, calculating the drug concentration corresponding to half of the gray value of the Western blotting band for the DMSO control.
In the case of `Cc1ncsc1-c1ccc(CNC(=O)[C@@H]2C[C@@H](O)CN2C(=O)[C@@H](NC(=O)CCOCCOCCC(=O)N(C)CCOc2ccc(/C(=C(/CCCl)c3ccccc3)c3ccccc3)cc2)C(C)(C)C)cc1` [SIAIS180023, (2S,4R)-1-((S)-2-(tert-butyl)-16-(4-((Z)-4-chloro-1,2-diphenylbut-1-en-1-yl)phenoxy)-14-methyl-4,13-dioxo-7,10-dioxa-3,14-diazahexadecanoyl)-4-hydroxy-N-(4-(4-methylthiazol-5-yl)benzyl)pyrrolidine-2-carboxamide], the DC50 was less than 50 nM.
Work on `Cc1ncsc1-c1ccc(CNC(=O)[C@@H]2C[C@@H](O)CN2C(=O)[C@@H](NC(=O)CCCCC(=O)N2CCN(CCOc3ccc(C(=C(CCCl)c4ccccc4)c4ccc(O)cc4)cc3)CC2)C(C)(C)C)cc1` [SIAIS251043, (2S,4R)-1-((S)-2-(6-(4-(2-(4-(4-chloro-1-(4-hydroxyphenyl)-2-phenylbut-1-en-1-yl)phenoxy)ethyl)piperazin-1-yl)-6-oxohexanamido)-3,3-dimethylbutanoyl)-4-hydroxy-N-(4-(4-methylthiazol-5-yl)benzyl)pyrrolidine-2-carboxamide] yielded a DC50 of less than 50 nM.
In the case of `Cc1ncsc1-c1ccc(CNC(=O)[C@@H]2C[C@@H](O)CN2C(=O)[C@@H](NC(=O)CCCCCCCC(=O)N2CCN(CCOc3ccc(C(=C(CCCl)c4ccccc4)c4ccc(O)cc4)cc3)CC2)C(C)(C)C)cc1` [SIAIS251046, (2S,4R)-1-((S)-2-(9-(4-(2-(4-(4-chloro-1-(4-hydroxyphenyl)-2-phenylbut-1-en-1-yl)phenoxy)ethyl)piperazin-1-yl)-9-oxononanamido)-3,3-dimethylbutanoyl)-4-hydroxy-N-(4-(4-methylthiazol-5-yl)benzyl)pyrrolidine-2-carboxamide], the DC50 was less than 50 nM.
Compound `Cc1ncsc1-c1ccc(CNC(=O)[C@@H]2C[C@@H](O)CN2C(=O)[C@@H](NC(=O)CCN2CCN(CCC(=O)NCCOc3ccc(C(=C(CCCl)c4ccccc4)c4ccc(O)cc4)cc3)CC2)C(C)(C)C)cc1` [SIAIS208107, (2S,4R)-1-((S)-2-(3-(4-(3-((2-(4-(4-chloro-1-(4-hydroxyphenyl)-2-phenylbut-1-en-1-yl)phenoxy)ethyl)amino)-3-oxopropyl)piperazin-1-yl)propanamido)-3,3-dimethylbutanoyl)-4-hydroxy-N-(4-(4-methylthiazol-5-yl)benzyl)pyrrolidine-2-carboxamide] has a DC50 of less than 200 nM.
Compound `Cc1ncsc1-c1ccc(CNC(=O)[C@@H]2C[C@@H](O)CN2C(=O)[C@@H](NC(=O)CCOCCOCCOCCC(=O)N(C)CCOc2ccc(/C(=C(/CCCl)c3ccccc3)c3ccccc3)cc2)C(C)(C)C)cc1` [SIAIS180024, (2S,4R)-1-((S)-2-(tert-butyl)-19-(4-((Z)-4-chloro-1,2-diphenylbut-1-en-1-yl)phenoxy)-17-methyl-4,16-dioxo-7,10,13-trioxa-3,17-diazanonadecanoyl)-4-hydroxy-N-(4-(4-methylthiazol-5-yl)benzyl)pyrrolidine-2-carboxamide] has a DC50 of less than 50 nM.
`CCC(=C(c1ccc(O)cc1)c1ccc(OCCNC(=O)CCN2CCN(CCNc3cccc4c3C(=O)N(C3CCC(=O)NC3=O)C4=O)CC2)cc1)c1ccc(O)cc1` (stereo not shown) [SIAIS208172, N-(2-(4-(1,2-bis(4-hydroxyphenyl)but-1-en-1-yl)phenoxy)ethyl)-3-(4-(2-((2-(2,6-dioxopiperidin-3-yl)-1,3-dioxoisoindolin-4-yl)amino)ethyl)piperazin-1-yl)propanamide] gave a DC50 of less than 50 nM.
With `Cc1ncsc1-c1ccc(CNC(=O)[C@@H]2C[C@@H](O)CN2C(=O)[C@@H](NC(=O)CCCCCCCCC(=O)N2CCN(CCOc3ccc(C(=C(CCCl)c4ccccc4)c4ccc(O)cc4)cc3)CC2)C(C)(C)C)cc1` [SIAIS251047, (2S,4R)-1-((S)-2-(10-(4-(2-(4-(4-chloro-1-(4-hydroxyphenyl)-2-phenylbut-1-en-1-yl)phenoxy)ethyl)piperazin-1-yl)-10-oxodecanamido)-3,3-dimethylbutanoyl)-4-hydroxy-N-(4-(4-methylthiazol-5-yl)benzyl)pyrrolidine-2-carboxamide] the DC50 was less than 50 nM.
With `CCC(=C(c1ccc(O)cc1)c1ccc(OCCNC(=O)CCCCCCCC(=O)N[C@H](C(=O)N2C[C@H](O)C[C@H]2C(=O)NCc2ccc(-c3scnc3C)cc2)C(C)(C)C)cc1)c1ccc(O)cc1` [SIAIS208167, N1-(2-(4-(1,2-bis(4-hydroxyphenyl)but-1-en-1-yl)phenoxy)ethyl)-N9-((S)-1-((2S,4R)-4-hydroxy-2-((4-(4-methylthiazol-5-yl)benzyl)carbamoyl)pyrrolidin-1-yl)-3,3-dimethyl-1-oxobutan-2-yl)nonanediamide] the DC50 was less than 50 nM.
Compound `CCC(=C(c1ccc(O)cc1)c1ccc(OCCNC(=O)CCOCCOCCOCCC(=O)N[C@H](C(=O)N2C[C@H](O)C[C@H]2C(=O)NCc2ccc(-c3scnc3C)cc2)C(C)(C)C)cc1)c1ccc(O)cc1` [SIAIS208174, (2S,4R)-1-((S)-19-(4-(1,2-bis(4-hydroxyphenyl)but-1-en-1-yl)phenoxy)-2-(tert-butyl)-4,16-dioxo-7,10,13-trioxa-3,17-diazanonadecanoyl)-4-hydroxy-N-(4-(4-methylthiazol-5-yl)benzyl)pyrrolidine-2-carboxamide] has a DC50 of less than 50 nM.
Work on `Cc1ncsc1-c1ccc(CNC(=O)[C@@H]2C[C@@H](O)CN2C(=O)[C@@H](NC(=O)CCCCCCCCC(=O)N(C)CCOc2ccc(/C(=C(/CCCl)c3ccccc3)c3ccccc3)cc2)C(C)(C)C)cc1` [SIAIS180036, N1-(2-(4-((Z)-4-chloro-1,2-diphenylbut-1-en-1-yl)phenoxy)ethyl)-N10-((S)-1-((2S,4R)-4-hydroxy-2-((4-(4-methylthiazol-5-yl)benzyl)carbamoyl)pyrrolidin-1-yl)-3,3-dimethyl-1-oxobutan-2-yl)-N1-methyldecanediamide] yielded a DC50 of less than 200 nM.
`Cc1ncsc1-c1ccc(CNC(=O)[C@@H]2C[C@@H](O)CN2C(=O)[C@@H](NC(=O)CCOCCOCCOCCOCCC(=O)N(C)CCOc2ccc(/C(=C(/CCCl)c3ccccc3)c3ccccc3)cc2)C(C)(C)C)cc1` [SIAIS180025, N1-(2-(4-((Z)-4-chloro-1,2-diphenylbut-1-en-1-yl)phenoxy)ethyl)-N16-((S)-1-((2S,4R)-4-hydroxy-2-((4-(4-methylthiazol-5-yl)benzyl)carbamoyl)pyrrolidin-1-yl)-3,3-dimethyl-1-oxobutan-2-yl)-N1-methyl-4,7,10,13-tetraoxahexadecanediamide] showed a DC50 of less than 50 nM.
In the case of `O=C(CCCCCCNc1cccc2c1C(=O)N(C1CCC(=O)NC1=O)C2=O)NCCOc1ccc(C(=C(CCCl)c2ccccc2)c2ccc(O)cc2)cc1` (stereo not shown) [SIAIS208145, N-(2-(4-(4-chloro-1-(4-hydroxyphenyl)-2-phenylbut-1-en-1-yl)phenoxy)ethyl)-7-((2-(2,6-dioxopiperidin-3-yl)-1,3-dioxoisoindolin-4-yl)amino)heptanamide], the DC50 was less than 100 nM.
`CN(CCOc1ccc(/C(=C(/CCCl)c2ccccc2)c2ccccc2)cc1)C(=O)CCN1CCN(CCNc2cccc3c2C(=O)N(C2CCC(=O)NC2=O)C3=O)CC1` (stereo not shown) [SIAIS208135, (Z)-N-(2-(4-(4-chloro-1,2-diphenylbut-1-en-1-yl)phenoxy)ethyl)-3-(4-(2-((2-(2,6-dioxopiperidin-3-yl)-1,3-dioxoisoindolin-4-yl)amino)ethyl)piperazin-1-yl)-N-methylpropanamide] was tested, and the DC50 was less than 200 nM.
